Consider 3 compounds from patent US20250000924A1, “Composition for the prevention, improvement or treatment of allergic disease comprising an extract of Taxus cuspidata as an active ingredient” (KOREA INSTITUTE OF SCIENCE AND TECHNOLOGY, priority 2023, published 2025).

The test system of the test is mast cells. Description: Anti-allergic effect of active ingredients derived from Taxus cuspidata extract (degranulation, PGE2, TNF-α, IL-4 overall). The note with it: overall statement on FIGS. 13 to 16; compounds at 20 μM. The class given is cell-based, rat. As to the method:
Mast cells were cultured in the same manner as in Example 2 above, and then treated with the nine compounds isolated in Example 11 above at a concentration of 20 μM, respectively.
Mast cells were cultured in the same manner as in Example 3 above, and then treated with the nine compounds isolated in Example 11 above at a concentration of 20 μM, respectively.
• treated with the 9 compounds isolated in Example 11 at a concentration of 20 μM, respectively.
Mast cells were cultured in the same manner as in Example 5 above, and then treated with the nine compounds isolated in Example 11 above at a concentration of 20 μM, respectively.
Consider `OCCCc1ccc(O)cc1` [3-(4-Hydroxyphenyl)-1-propanol], for which the anti-allergy effects entry was “excellent”.
Turning to `O=Cc1ccc(O)cc1` [4-hydroxyl benzandehyde], the anti-allergy effects result was “excellent”.
For `COc1cc(O)cc(OC)c1` [Taxicatigenin] the value was “excellent”.
